# In ChEMBL document CHEMBL4831506, “Discovery of novel trimethoxyphenylbenzo[d]oxazoles as dual tubulin/PDE4 inhibitors capable of inducing apoptosis at G2/M phase arrest in glioma and lung cancer cells” (Eur J Med Chem, 2021):
# pIC50: −log10 of the molar value.
# How the values were obtained:
# A549 [1] = experiment: Cell cycle arrest in human A549 cells assessed as G2/M phase at 500 nM measured after 24 hrs by propidium iodide staining based flow cytometry analysis (reference value: 6.08%); type: functional
# U-251 [2] = experiment: Induction of apoptosis in human U-251 cells assessed as increase in necrotic cells at 200 nM measured after 24 hrs by PI/FITC analysis (reference value: 0.301%); type: functional
# U-251 [3] = experiment: Induction of apoptosis in human U-251 cells assessed as increase in late apoptotic cells at 1000 nM measured after 24 hrs by PI/FITC analysis (reference value: 0.311%); type: functional
# A549 [4] = experiment: Induction of apoptosis in human A549 cells assessed as increase in viable cells at 500 nM measured after 24 hrs by PI/FITC analysis (reference value: 98.4%); type: functional
# U-251 [5] = experiment: Induction of apoptosis in human U-251 cells assessed as increase in viable cells at 1000 nM measured after 24 hrs by PI/FITC analysis (reference value: 98.3%); type: functional
# U-251 [6] = experiment: Cell cycle arrest in human U-251 cells assessed as G0/G1 phase at 1000 nM measured after 24 hrs by propidium iodide staining based flow cytometry analysis (reference value: 67.34%); type: functional
# A549 [7] = experiment: Induction of apoptosis in human A549 cells assessed as increase in necrotic cells at 50 nM measured after 24 hrs by PI/FITC analysis (reference value: 0.365%); type: functional
# U-251 [8] = experiment: Induction of apoptosis in human U-251 cells assessed as increase in necrotic cells at 1000 nM measured after 24 hrs by PI/FITC analysis (reference value: 0.301%); type: functional
# A549 [9] = experiment: Induction of apoptosis in human A549 cells assessed as increase in early apoptotic cells at 500 nM measured after 24 hrs by PI/FITC analysis (reference value: 0.955%); type: functional
# U-251 [10] = experiment: Cell cycle arrest in human U-251 cells assessed as G0/G1 phase at 500 nM measured after 24 hrs by propidium iodide staining based flow cytometry analysis (reference value: 67.34%); type: functional
# A549 [11] = experiment: Cell cycle arrest in human A549 cells assessed as increase in cyclin B1 expression by Western blot analysis; type: functional, cell-based; details: dose 50-500 nM
# Sus scrofa [12] = organism: Sus scrofa; experiment: Inhibition of pig brain tubulin polymerization at 10 uM by spectrometric method relative to control; type: tissue-based
# Sus scrofa [13] = organism: Sus scrofa; experiment: Inhibition of pig brain tubulin polymerization at 1 uM by spectrometric method relative to control; type: tissue-based
# A549 [14] = experiment: Cell cycle arrest in human A549 cells assessed as G2/M phase at 50 nM measured after 24 hrs by propidium iodide staining based flow cytometry analysis (reference value: 6.08%); type: functional
# U-251 [15] = experiment: Antiproliferative activity against human U-251 cells after 48 hrs by MTT assay; type: functional, cell-based; details: U-251, 48 h
# A549 [16] = experiment: Induction of apoptosis in human A549 cells assessed as increase in late apoptotic cells at 200 nM measured after 24 hrs by PI/FITC analysis (reference value: 0.955%); type: functional
# A549 [17] = experiment: Cell cycle arrest in human A549 cells assessed as G0/G1 phase at 200 nM measured after 24 hrs by propidium iodide staining based flow cytometry analysis (reference value: 79.14%); type: functional
# A549 [18] = experiment: Cell cycle arrest in human A549 cells assessed as S phase at 500 nM measured after 24 hrs by propidium iodide staining based flow cytometry analysis (reference value: 14.78%); type: functional
structure (smiles),measurement,setting,value
COc1cc(-c2cccc3nc(-c4ccc5cc[nH]c5c4)oc23)cc(OC)c1OC,Activity,A549 [1],68.09%
same,Activity,U-251 [2],2.01%
same,Activity,U-251 [3],15.8%
same,Activity,A549 [4],70.7%
same,Activity,U-251 [5],77.4%
same,Activity,U-251 [6],13.54%
same,Activity,A549 [7],0.603%
same,Activity,U-251 [8],1.66%
same,Activity,A549 [9],11.1%
same,Activity,U-251 [10],34.64%
same,Activity,A549 [11],Dose-Dependent Effect
same,inhibition,Sus scrofa [12],86%
same,inhibition,Sus scrofa [13],40%
same,Activity,A549 [14],19.43%
same,pIC50,U-251 [15],6.52
same,Activity,A549 [16],0.85%
same,Activity,A549 [17],15.24%
same,Activity,A549 [18],28.03%
